{"source": "patent US20130230469A1", "about": "“Oral Care Product and Methods of Use and Manufacture Thereof” (COLGATE-PALMOLIVE COMPANY, priority 2010, published 2013)", "tested_on": "bacteria/yeast and mold", "test": "Antimicrobial Preservation Effectiveness Test (micro robustness), double challenge test", "format": "cell-based", "conditions": "for microbial control: preservative in mouthwash formulation, separately or in combination", "protocol": "The Antimicrobial Preservation Effectiveness Test is used to determine the antimicrobial preservation effectiveness of water-based product formulations by means of a double challenge test. Products are developed to withstand microbial challenges introduced by normal consumer use. The test is run on an aged sample (13 weeks, 40° C.). The test uses two pools of microorganisms: bacteria/yeast and mold. The product is challenged at a 1% level at day 0 and at day 7. Reduction of the inoculum is monitored over a 28 day period. The following are the acceptance criteria for mouth wash formulas. • Bacteria and Yeast must show a 99.9% reduction (3 logs) of the bacterial inoculum as determined by plate count on day 7 following each inoculation. No increase after day 7 of the second inoculation and for the remainder of the test within normal variation of the data. • Mold must show a 90.0% reduction (1 log) of the mold inoculum as determined by the plate count on day 14 following the second inoculation (day 21). No increase from day 14 to day 21 of the second inoculation of the test within normal variation of the data.", "data": [{"smiles": "CCCCCCCC(=O)OCC(O)CO", "note": "(stereo not shown) [Lexgard/gmcy, glycerol monocaprylate]", "values": [{"measurement": "microbial control", "result": "acceptable microbial control"}]}, {"smiles": "OCc1ccccc1", "note": "[Benzyl alcohol, benzyl alcohol]", "values": [{"measurement": "microbial control", "result": "acceptable microbial control"}]}, {"smiles": "Cn1sccc1=O", "note": "[MIT, methylisothiazolinone]", "values": [{"measurement": "antimicrobial efficacy", "setting": "amount reduced to 0.001%", "result": "retaining antimicrobial efficacy"}, {"measurement": "microbial control", "result": "acceptable microbial control"}]}]}
